Data on one compound can be found in patent publication EP4559919A1, “TRICYCLIC-CONTAINING MACROCYCLIC COMPOUND AND USE THEREOF” (Medshine Discovery Inc., priority 2022, dated 2024).

For experiment [1], the target named is T1, CYP2C9 (Homo sapiens, UniProt P11712).
T1 construct: Mixed human liver microsomes (HLM) purchased from Corning Inc; tissue Corning Inc; host or cells: pooled human liver microsomes
The experiment in a line: Cytochrome P450 isozyme inhibitory activity test (human liver microsomes). The format is in vitro ADME. As to conditions: human liver microsomes 0.1 mg/mL; probe substrate Diclofenac. As for the experimental part: To test the inhibitory activity of the compounds of the present disclosure on different subtypes of human liver microsomal cytochrome P450 isozymes.
Mixed human liver microsomes (HLM) purchased from Corning Inc. (Steuben, New York, USA); Diclofenac as the probe substrate (10 µM); Sulfaphenazole as the positive control inhibitor; 4'-Hydroxydiclofenac as the metabolite
Preparation of test system working solution: Human liver microsomes (HLM): HLM stock solution at 20.0 mg/mL, working solution at 0.2 mg/mL, final concentration at 0.1 mg/mL; Potassium phosphate buffer: 100 mM; Cofactor working solution: Magnesium chloride, NADP (nicotinamide adenine dinucleotide phosphate), G6P (glucose-6-phosphate), G6PDH (glucose-6-phosphate dehydrogenase), and phosphate buffer or magnesium chloride, NADPH (reduced nicotinamide adenine dinucleotide phosphate) powder, and potassium phosphate buffer; prepared into cofactor working solution at appropriate ratios;
Stop solution: Isotope-labeled 4'-hydroxydiclofenac-d4 stock solution prepared in methanol, then prepared into stop solution using acetonitrile.
In the substrate-free control sample wells of the reaction plate, 100 µL of a mixture of human liver microsome and potassium phosphate buffer was added. At the zero-time point sample wells, 98 µL of a mixture of the human liver microsome and potassium phosphate buffer was added. In the no-inhibitor control (NIC), test compound, and positive control inhibitor sample wells of the reaction plate, 100 µL of a mixture of the human liver microsome and substrate was added. From the dilution plate, 2 µL of blank solvent, test compound working solution (three parallels), and positive control inhibitor working solution (two parallels) were added to the reaction plate. The reaction plate was preheated at 37.0°C for 10 minutes. […] The concentration of specific metabolites in the samples was detected using the liquid chromatography-tandem mass spectrometry (LC-MS/MS) method. […] The IC50 values were calculated using a three-parameter or four-parameter inverse log equation.

Experiment [2] has as its target T2, CYP3A4-M (Homo sapiens, UniProt P08684).
T2 construct: Mixed human liver microsomes (HLM) purchased from Corning Inc; tissue Corning Inc; host or cells: pooled human liver microsomes
Described as above. As to conditions: human liver microsomes 0.1 mg/mL. The format is in vitro ADME.

For experiment [3], the target named is T3, ALK(G1202R/L1196M) (Homo sapiens, UniProt Q9UM73, G1202R/L1196M).
T3 construct: purchased Carna
The experiment in a line: In vitro kinase inhibitory activity assay, Experimental method 2 (ADP-Glo). In kind it is biochemical. The note with it: Experimental method 2; ATP 5.0 µM, substrate IGF1; read-out: Kinase half maximal inhibitory concentration IC50 ALK^G1202R/L1196M.

Experiment [4] concerns the target T4, TRKB (Homo sapiens, UniProt Q16620).
T4 construct: purchased Carna
The experiment is described as above. In kind it is biochemical. The note with it: Experimental method 2; ATP 5.0 µM, substrate PolyE4Y1; read-out: Kinase half maximal inhibitory concentration IC50 TRKB.

The target in experiment [5] is T5, CYP1A2 (Homo sapiens, UniProt P05177).
T5 construct: Mixed human liver microsomes (HLM) purchased from Corning Inc; tissue Corning Inc; host or cells: pooled human liver microsomes
T5 sequence (P05177 1-516): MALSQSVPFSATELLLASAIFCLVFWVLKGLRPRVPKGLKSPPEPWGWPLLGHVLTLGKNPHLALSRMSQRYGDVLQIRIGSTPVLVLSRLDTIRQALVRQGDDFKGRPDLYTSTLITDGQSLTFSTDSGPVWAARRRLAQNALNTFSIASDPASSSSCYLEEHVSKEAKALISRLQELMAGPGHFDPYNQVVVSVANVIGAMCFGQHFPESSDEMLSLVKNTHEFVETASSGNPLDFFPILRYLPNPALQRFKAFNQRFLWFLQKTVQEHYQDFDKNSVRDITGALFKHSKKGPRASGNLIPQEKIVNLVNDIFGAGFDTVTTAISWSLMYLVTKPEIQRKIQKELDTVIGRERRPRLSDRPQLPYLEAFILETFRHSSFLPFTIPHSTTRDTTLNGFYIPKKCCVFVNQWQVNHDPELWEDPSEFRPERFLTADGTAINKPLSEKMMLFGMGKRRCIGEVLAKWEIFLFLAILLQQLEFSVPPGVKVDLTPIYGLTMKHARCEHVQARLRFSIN
The experiment in a line: Cytochrome P450 isozyme inhibitory activity test (human liver microsomes). In kind it is in vitro ADME. The note with it: human liver microsomes 0.1 mg/mL.

In experiment [6] the target is T6, CYP2D6 (Homo sapiens, UniProt P10635).
T6 construct: Mixed human liver microsomes (HLM) purchased from Corning Inc; tissue Corning Inc; host or cells: pooled human liver microsomes
The description is as above. The format is in vitro ADME. As to conditions: human liver microsomes 0.1 mg/mL.

T2 sequence (P08684 whole entry): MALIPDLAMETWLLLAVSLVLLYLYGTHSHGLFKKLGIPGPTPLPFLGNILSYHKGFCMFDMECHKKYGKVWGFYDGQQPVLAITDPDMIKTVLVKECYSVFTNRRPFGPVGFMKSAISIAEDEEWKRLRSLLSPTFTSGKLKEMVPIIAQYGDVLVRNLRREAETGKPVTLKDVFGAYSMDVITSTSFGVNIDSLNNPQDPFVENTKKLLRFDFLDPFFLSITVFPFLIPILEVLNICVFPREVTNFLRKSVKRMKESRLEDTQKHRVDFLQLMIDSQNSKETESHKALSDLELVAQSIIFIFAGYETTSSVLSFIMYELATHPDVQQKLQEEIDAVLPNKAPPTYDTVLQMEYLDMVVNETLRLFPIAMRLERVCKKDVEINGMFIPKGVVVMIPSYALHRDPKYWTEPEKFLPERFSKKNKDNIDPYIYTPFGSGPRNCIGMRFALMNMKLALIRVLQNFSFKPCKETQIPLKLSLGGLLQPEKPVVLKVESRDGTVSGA
T4 sequence (Q16620 32-822): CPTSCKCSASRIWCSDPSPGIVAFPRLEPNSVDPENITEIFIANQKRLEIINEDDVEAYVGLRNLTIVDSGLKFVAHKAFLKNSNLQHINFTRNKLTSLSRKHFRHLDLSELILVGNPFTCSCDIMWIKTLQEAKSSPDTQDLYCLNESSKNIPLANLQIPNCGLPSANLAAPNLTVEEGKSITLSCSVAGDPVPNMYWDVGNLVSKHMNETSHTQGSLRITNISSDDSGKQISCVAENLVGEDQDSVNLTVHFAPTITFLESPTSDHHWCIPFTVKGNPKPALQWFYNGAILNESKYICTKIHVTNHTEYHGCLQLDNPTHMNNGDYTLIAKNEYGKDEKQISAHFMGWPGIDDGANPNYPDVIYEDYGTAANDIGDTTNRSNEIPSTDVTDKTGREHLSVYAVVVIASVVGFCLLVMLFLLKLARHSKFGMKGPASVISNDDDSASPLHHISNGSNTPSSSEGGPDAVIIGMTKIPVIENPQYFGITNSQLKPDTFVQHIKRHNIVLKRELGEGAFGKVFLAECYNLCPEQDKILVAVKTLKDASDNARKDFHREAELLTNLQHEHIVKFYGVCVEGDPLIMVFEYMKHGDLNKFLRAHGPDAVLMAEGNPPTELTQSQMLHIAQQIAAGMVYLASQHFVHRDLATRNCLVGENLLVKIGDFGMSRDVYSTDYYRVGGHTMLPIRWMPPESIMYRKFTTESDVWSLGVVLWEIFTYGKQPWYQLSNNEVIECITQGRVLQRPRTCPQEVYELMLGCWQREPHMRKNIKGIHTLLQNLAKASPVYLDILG
T3 sequence (Q9UM73 19-1620 L1196M/G1202R): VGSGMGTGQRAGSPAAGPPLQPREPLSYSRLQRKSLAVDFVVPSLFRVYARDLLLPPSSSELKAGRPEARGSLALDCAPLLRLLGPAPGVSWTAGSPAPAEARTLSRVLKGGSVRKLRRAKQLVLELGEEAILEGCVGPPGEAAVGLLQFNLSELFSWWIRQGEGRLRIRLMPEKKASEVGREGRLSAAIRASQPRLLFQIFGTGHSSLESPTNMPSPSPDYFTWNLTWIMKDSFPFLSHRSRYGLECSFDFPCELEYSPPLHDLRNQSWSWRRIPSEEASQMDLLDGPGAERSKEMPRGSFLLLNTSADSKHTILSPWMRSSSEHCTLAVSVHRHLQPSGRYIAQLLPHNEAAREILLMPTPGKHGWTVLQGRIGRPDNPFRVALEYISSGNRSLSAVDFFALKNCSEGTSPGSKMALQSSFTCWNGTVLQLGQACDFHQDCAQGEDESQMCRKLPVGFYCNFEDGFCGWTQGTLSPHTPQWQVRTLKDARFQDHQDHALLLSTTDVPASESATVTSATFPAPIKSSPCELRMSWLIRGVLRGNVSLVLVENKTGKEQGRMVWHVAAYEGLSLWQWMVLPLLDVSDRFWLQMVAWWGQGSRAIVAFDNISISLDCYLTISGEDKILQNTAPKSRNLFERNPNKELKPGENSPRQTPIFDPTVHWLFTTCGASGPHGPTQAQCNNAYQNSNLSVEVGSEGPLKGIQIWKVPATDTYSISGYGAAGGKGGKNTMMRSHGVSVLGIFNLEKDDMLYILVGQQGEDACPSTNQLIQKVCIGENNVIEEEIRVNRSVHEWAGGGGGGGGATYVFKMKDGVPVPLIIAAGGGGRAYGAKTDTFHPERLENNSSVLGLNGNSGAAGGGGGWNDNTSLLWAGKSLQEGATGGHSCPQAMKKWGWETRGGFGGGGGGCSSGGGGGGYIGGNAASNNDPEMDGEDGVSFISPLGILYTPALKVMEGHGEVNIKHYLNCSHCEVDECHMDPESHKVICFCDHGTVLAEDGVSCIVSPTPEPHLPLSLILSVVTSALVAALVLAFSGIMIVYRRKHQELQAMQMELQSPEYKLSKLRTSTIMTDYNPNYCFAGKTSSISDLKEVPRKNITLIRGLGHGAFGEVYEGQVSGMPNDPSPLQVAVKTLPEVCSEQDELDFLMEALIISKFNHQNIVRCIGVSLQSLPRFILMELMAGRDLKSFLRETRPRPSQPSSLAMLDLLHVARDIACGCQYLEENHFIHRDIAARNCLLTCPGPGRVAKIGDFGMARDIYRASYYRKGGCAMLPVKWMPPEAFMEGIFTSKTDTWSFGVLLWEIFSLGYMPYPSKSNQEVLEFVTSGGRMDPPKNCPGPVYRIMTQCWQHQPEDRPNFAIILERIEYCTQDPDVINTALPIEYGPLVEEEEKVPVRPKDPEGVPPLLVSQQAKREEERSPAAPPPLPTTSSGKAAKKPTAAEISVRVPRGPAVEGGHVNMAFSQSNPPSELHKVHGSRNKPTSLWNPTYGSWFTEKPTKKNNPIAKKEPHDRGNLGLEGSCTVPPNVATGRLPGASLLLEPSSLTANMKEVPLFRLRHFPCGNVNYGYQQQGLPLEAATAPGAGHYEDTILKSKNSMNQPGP
T6 sequence (P10635 whole entry): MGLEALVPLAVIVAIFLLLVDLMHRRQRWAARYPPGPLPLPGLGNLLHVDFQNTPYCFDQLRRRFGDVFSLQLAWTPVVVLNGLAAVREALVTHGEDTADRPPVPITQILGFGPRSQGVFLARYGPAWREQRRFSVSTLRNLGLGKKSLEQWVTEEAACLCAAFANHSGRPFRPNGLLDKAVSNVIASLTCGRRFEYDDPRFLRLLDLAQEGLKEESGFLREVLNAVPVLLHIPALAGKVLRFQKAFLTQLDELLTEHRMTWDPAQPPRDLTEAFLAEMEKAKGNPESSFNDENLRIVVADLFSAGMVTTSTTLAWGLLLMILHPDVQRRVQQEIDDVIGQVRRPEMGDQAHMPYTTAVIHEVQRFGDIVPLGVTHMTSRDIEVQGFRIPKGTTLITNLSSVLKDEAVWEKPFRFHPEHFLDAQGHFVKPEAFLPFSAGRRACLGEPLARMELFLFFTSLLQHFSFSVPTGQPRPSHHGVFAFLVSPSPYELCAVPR
T1 sequence (P11712 whole entry): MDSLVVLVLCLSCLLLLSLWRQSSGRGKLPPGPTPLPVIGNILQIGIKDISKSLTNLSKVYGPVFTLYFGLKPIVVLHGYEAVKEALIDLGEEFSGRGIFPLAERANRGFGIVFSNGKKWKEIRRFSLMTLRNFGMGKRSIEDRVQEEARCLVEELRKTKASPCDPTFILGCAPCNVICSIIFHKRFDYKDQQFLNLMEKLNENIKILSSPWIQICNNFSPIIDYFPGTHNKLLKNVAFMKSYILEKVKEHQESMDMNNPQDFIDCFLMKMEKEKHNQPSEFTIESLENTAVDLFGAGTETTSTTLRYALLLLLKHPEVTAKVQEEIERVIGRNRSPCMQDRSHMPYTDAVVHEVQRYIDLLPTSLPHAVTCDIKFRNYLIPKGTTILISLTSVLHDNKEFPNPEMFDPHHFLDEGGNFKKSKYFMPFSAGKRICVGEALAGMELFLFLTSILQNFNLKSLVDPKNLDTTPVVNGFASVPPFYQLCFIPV

On to `Cc1nn2cc3c4nc2c1C(=O)NC1(CC1)COc1ccc(F)cc1CN4[C@H](C(F)F)CO3` [Compound 016], for which the IC50 in experiment [1] is 3.12 µM; in experiment [2] it was more than 50 µM; in experiment [3], 0.0009 µM; in experiment [4], 0.0003 µM; in experiment [5], more than 50 µM; in experiment [6] it was more than 50 µM.
